Assay results as given in patent US4959353A, “Promotion of corneal stroma wound healing with human epidermal growth factor prepared from recombinant DNA” (University of Louisville Foundation, priority 1987, dated 1990).

Legend:
interscapular incision [1] = assay: Tensile strength of incisions treated with repeated doses of EGF-saline; type: in vivo, rats
Procedure: Interscapular incisions were created as above on the backs of 22 rats and a perforated catheter was placed in the base of the incision and brought out through a separate stab incision at the base of the neck. Incisions of half the rats were treated three times a day for five days by rapidly injecting 200 μl of PBS containing 50 μg of hEGF, while the control rats received injections of PBS. Seven and 14 days after surgery, rats were sacrificed by carbon dioxide asphixiation, incisions and surrounding tissue were removed as above. Three strips were taken from tensile strength measurement from each incision.
An interscapular incision was made on the back of each rat and a perforated catheter was placed in the base of the incision and brought out through a separate stab wound and the incision was sutured. Incisions were treated three times a day for five days by injecting 200 μl of saline alone or containing 50 μg EGF. After seven and fourteen days, rats were sacrificed and triplicate tensile strength measurements were determined for each rat. Values are mean and standard deviation and n is the number of tensile strength measurements.

[2] = test system: capillary growth in rabbit cornea; assay: Rabbit cornea angiogenesis assay with hEGF EVA pellets; type: in vivo, rabbits; parameters: key to Angiogenic Response: 4+: profuse capillary growth; 3+: extensive capillary growth; 2+: moderate capillary growth; 1+: very little capillary growth; 0: no capillary growth
Procedure: hEGF was dilated in sterile PBS to concentrations of 500, 100, 20, 4 and 0.8 μg/ml and lyophilized. Ethylene-vinyl acetate (EVA) copolymer beads were mixed with methylene chloride to produce a 10% w/v casting solution. Approximately 0.1 ml of casting solution was added to the lyophilized hEGF and mixed. […]
The pellets were implanted into intrasomal corneal pockets located 1.5 mm from the limbus in the eyes of pigmented adult rabbits. […]

interscapular incision [3] = assay: Tensile strength of incisions treated with a single dose of EGF-saline; type: in vivo, rats; conditions: after 10 days; single dose in saline
Procedure: Adult male Sprague Dawley rats weighing 230-250 g were anesthetized and a single interscapular incision 5 cm long penetrating the panniculus carnosus was created in the dorsal midline. Equal amounts of hEGF (10 μg) formulated in one of the four formulations were placed in the base of individual incision tracts, and then sutured. At daily intervals, rats were sacrificed by carbon dioxide inhalation and incisions with 3 mm of surrounding nonwounded skin were excised to the underlying muscle. Total amounts of hEGF present in incision areas were calculated by measuring residual ^125 I-hEGF present in samples using a Beckman 4000 gamma scintillation counter, and were expressed as percentages of original hEGF applied to incisions. At each time point, the average amount of hEGF retained in the incision for each formulation was calculated from the values from three rats. From each incision, three test strips approximately 5 mm wide were cut perpendicular to the original incision, one from the middle and two from each end. Measurements of incision strength were conducted using a Unite-O-Matic FM-20 tensiometer instrument. For each formulation, the mean tensile strength was calculated from the mean value of all incision measurements in the group. […]

blister wounds = conditions: mEGF in saline solution once daily until healed; human subjects; cited from earlier work
open wounds = conditions: topical application; mice; cited from earlier work

Substance	average increase in strength over saline treated incisions (interscapular incision [1]; 7 days after surgery) [%]	microscopic appearance of incision tract (interscapular incision [1]; 7 days after surgery)	tensile strength vs saline-treated incisions (interscapular incision [1]; fourteen days after surgery)	Angiogenic Response ([2]; 0.04 mg/pellet (so in the source), EVA pellet)	Angiogenic Response ([2]; 0.18 mg/pellet (so in the source), EVA pellet)	Angiogenic Response ([2]; 1.1 mg/pellet (so in the source), EVA pellet)	Angiogenic Response ([2]; 6.2 mg/pellet (so in the source), EVA pellet)	Angiogenic Response ([2]; 25 mg/pellet (so in the source), EVA pellet in rabbit corneal pocket)	angiogenesis in rabbit cornea assay ([2]; sustained release from EVA pellets)	tensile strength vs PBS-treated or simply sutured incisions (interscapular incision [3])	acceleration in the growth of the epidermal layer (blister wounds)	healing of open wounds (open wounds)
hEGF: human epidermal growth factor polypeptide expressed from plasmid pYαEGF-23 in yeast strain AB103 and purified	35	very narrow with closely opposed edges	not different	1+	1+	2+	3+	4+	induced angiogenesis	not significantly stronger		
mEGF: epidermal growth factor obtained from mouse salivary glands (NSYPGCPSSYDGYCLNGGVCMHIESLDSYTCNCVIGYSGDRCQTRDLRWWELR; not fully specified; Epidermal growth factor; UniProt P01132 977-1029, looked up)											No acceleration	promote healing in various degrees
